Experimental data from US20250340592A1, “MAMMALIAN MILK-DERIVED PEPTIDES WITH ANTIMICROBIAL ACTIVITY” (MATRUBIALS INC., priority 2022, published 2025).
Where no end group is shown, it is not given here.

How the values were obtained:
S. aureus MRSA [1] = experiment: direct kill assay of formulated peptide (FIG. 13); format: cell-based, Staphylococcus aureus; conditions: 0.5% by weight peptide in 20% propylene glycol and 2% hydroxypropyl cellulose
Description: (§1) FIG. 13 depicts the retention of antimicrobial activity of the indicated peptides M6 (SEQ ID NO: 26), M14 (SEQ ID NO:177), M16 (SEQ ID NO: 213) and M22 (SEQ ID NO: 291), with each peptide formulated in a composition with 20% propylene glycol and 2% hydroxypropyl cellulose (F is the formulation without a peptide), in the presence of S. aureus MRSA, from 0 minutes (min) to 60 minutes, as indicated, where the amount of growth is indicated as: 4 is full growth; 3 is too many colonies to count; 2 is countable colonies; and 1 is no growth.
(§2) In FIG. 13, the impact of the formulation comprising 20% propylene glycol and 2% hydroxypropyl cellulose and 0.5% by weight of peptide M6 (SEQ ID NO: 26), M7 (SEQ ID NO: 31), M14 (SEQ ID NO: 177), M16 (SEQ ID NO: 213), or M22 (SEQ ID NO: 291) was tested using a direct kill assay.

G. vaginalis = experiment: direct kill assay (time-kill, FIG. 8); format: cell-based, Gardnerella vaginalis; conditions: 0.375, 0.75, 1.5 mg/ml peptide, spotted 30 min post incubation
Description: (§3) For these peptides, 0.375 mg/ml concentration is sufficient to cause loss of viability of G. vaginalis and L. iners as compared to the absence of peptides. In FIG. 8A, M1-M8 peptides (SEQ ID NOS: 1, 6, 11, 16, 21, 26, 31, and 36) were tested using direct kill assays. Equal inoculums of G. vaginalis, L. iners and L. crispatus were incubated with either water (0.00), or 0.375 mg/ml, 0.75 mg/ml and 1.5 mg/ml. of peptides. Aliquots were spotted 30 minutes (min) post incubation on human blood tween (HBT) bilayer media, Tryptic soy agar (+5% sheep blood) or MRS (de Man, Rogosa, and Sharpe) agar plates respectively. For these peptides, 0.375 mg/ml concentration is sufficient to cause loss of viability of G. vaginalis and L. iners as compared to the absence of peptides.

L. crispatus = experiment: direct kill assay (time-kill, FIG. 8); format: cell-based, Lactobacillus crispatus; conditions: 0.375, 0.75, 1.5 mg/ml peptide, spotted 30 min post incubation
Description: as §3

L. iners = experiment: direct kill assay (time-kill, FIG. 8); format: cell-based, Lactobacillus iners; conditions: 0.375, 0.75, 1.5 mg/ml peptide, spotted 30 min post incubation
Description: as §3

S. epidermidis = experiment: colony-forming assay, CFU/ml over time (FIG. 10C); format: cell-based, Staphylococcus epidermidis; conditions: peptide 0.5% (5 mg/ml), 0.8% NaCl, T=0 up to 60 minutes
Excerpt: (§4) FIGS. 10A, 10B, and 10C are graphs depicting bacterial viability in colony forming units (CFU) per milliliter (ml) over time (minutes) in the presence of select polypeptides: SEQ ID NO: 26 (M6); SEQ ID NO: 31 (M7); SEQ ID NO: 177 (M14); SEQ ID NO: 213 (M16); and SEQ ID NO: 291 (M22) in comparison to Indolicidin (IND) in the presence of P. aeruginosa (FIG. 10A), S. aureus MRSA (FIG. 10B), and S. epidermidis (FIG. 10C), respectively.
(§5) In FIGS. 10A, 10B, and 10C, quantitative colony-forming units/ml were assayed using the indicated peptides at a final concentration of 0.5% (5 mg/ml). For this colony-forming assay, peptides were incubated with indicated bacterial strains in 0.8% NaCl, and aliquots were removed starting time T=0, up to 60 minutes, followed by serial dilution and plating on Tryptic soy agar plates for overnight incubation, and enumeration of CFU/ml.

S. aureus MRSA [2] = experiment: colony-forming assay, CFU/ml over time (FIG. 10B); format: cell-based, Staphylococcus aureus; conditions: peptide 0.5% (5 mg/ml); for sensitivity of S. aureus to peptide (CFU/ml): 0.8% NaCl, T=0 up to 60 minutes; for sensitivity of S. aureus MRSA to peptide as compared to Indolicidin: after 20 minutes
Excerpt: as §4, §5

P. aeruginosa [3] = experiment: colony-forming assay, CFU/ml over time (FIG. 10A); format: cell-based, Pseudomonas aeruginosa; conditions: peptide 0.5% (5 mg/ml); for sensitivity of P. aeruginosa to peptide (CFU/ml): 0.8% NaCl, T=0 up to 60 minutes; for sensitivity of P. aeruginosa to peptide as compared to Indolicidin: after 20 minutes
Excerpt: as §4, §5

P. aeruginosa [4] = experiment: time-kill assays (FIG. 9); format: cell-based, Pseudomonas aeruginosa; conditions: as compared to M1-M5
Description: FIG. 9. depicts the antibiotic activity (in concentration of polypeptide at 0.375 mg/ml (****), 0.75 mg/ml (***), 1.5 mg/ml (**), or 3 mg/ml (*), as indicated) for each of polypeptides (SEQ ID NO: 1 (M1); SEQ ID NO: 6 (M2); SEQ ID NO: 11 (M3); SEQ ID NO: 16 (M4); SEQ ID NO: 21 (M5); SEQ ID NO: 26 (M6); SEQ ID NO: 31 (M7); SEQ ID NO: 36 (M8); SEQ ID NO: 41 (M9); SEQ ID NO: 76 (M10); SEQ ID NO: 106 (M11); SEQ ID NO: 141 (M12); SEQ ID NO: 142 (M13); SEQ ID NO: 177 (M14); SEQ ID NO:178 (M15); SEQ ID NO: 213 (M16); SEQ ID NO: 219 (M18), SEQ ID NO: 220 (M19); SEQ ID NO: 256 (M21); and SEQ ID NO: 291 (M22)) against P. aeruginosa and S. aureus MRSA, as indicated.
In FIG. 9, the bacterial pathogens P. aeruginosa and S. aureus—associated with skin, burn and wound infections were tested.

[5] = system: EpiVaginal tissue model (Mattek); format: cell-based
Description: Table 2 below show the results of peptides M6 (SEQ ID NO: 26) and M14 (SEQ ID NO: 177) were assayed for their impact on vaginal irritation using the Epi Vaginal model to determine the exposure time to decrease the tissue viability to 50% (ET50) in EpiVaginal™ tissue model (Mattek). In brief, after exposure to the M6 and M14 peptides at 20 mg/ml final concentration for various times, toxicity was determined by measuring the relative conversion of MTT (3-(4,5-dimethylthiazol-2-yl)-2,5-dephenyltetrazolium bromide) in the vaginal tissue samples treated with peptide compared to tissues treated with a solvent negative control. Positive control was Triton-X-100 at 1% final concentration.

A. baumannii [6] = experiment: direct kill assay of formulated peptide (FIG. 12D); format: cell-based, Acinetobacter baumannii; conditions: 0.5% peptide in 20% propylene glycol and 2% hydroxypropyl cellulose, 0-60 min
Description: as §1, with “FIGS. 12A, 12B, 12C, and 12D depict” for “FIG. 13 depicts”, “G. vaginalis (FIG. 12A), L. iners (FIG. 12B), L. crispatus (FIG. 12C), or A. baumannii (FIG. 12D),” for “S. aureus MRSA,”
as §2, with “FIGS. 12A, 12B, 12C, and 12D,” for “FIG. 13,”, “in” for “using”, “assay as described herein.” for “assay.”

[7] = system: MRSN panel P. aeruginosa strain NR-51553; format: cell-based, Pseudomonas aeruginosa; conditions: 0.5% CMC and 0.01×MH broth
Excerpt: FIGS. 15A-15B show the growth of P. aeruginosa strain NR-51553 of FIG. 14A in a modified CLSI-based broth dilution assay, in the presence of peptide M16 (SEQ ID NO: 213) in 0.01×MH broth (FIG. 15A) and in the presence of peptide M16 in 0.01×MH broth and 0.5% carboxymethyl cellulose (CMC) (FIG. 15B), where the amount of growth is indicated as: 4 is full growth; 3 is too many colonies to count; 2 is countable colonies; and 1 is no growth.
FIG. 14A indicates sensitive(S) or resistant (R) relative to the listed antibiotic for eight of the more peptide-resistant […] strains of 100 MRSN panel strains (NR-51553, NR-51556, NR-51570, NR51597, NR-51520, NR-51546, NR-51574, and NR-51588). […] CLSI-based method described in CLSI document M07-A10, Vol. 35, No. 2, 2015 (ISBN 1-56238-988-2).

A. baumannii [8] = experiment: growth of A. baumannii with peptide (FIG. 17); format: cell-based, Acinetobacter baumannii; conditions: 250 μg/ml peptide, 0.01×MH broth

## HYYAVAVVK (Synthetic: M22)
S. aureus MRSA [1]
  antibacterial activity against S. aureus MRSA in formulation: retains antibacterial activity
  time from which viability of S. aureus MRSA is reduced: 0 min

## HQKMAKPWTQ (Synthetic: M4)
G. vaginalis
  polypeptides target G. vaginalis (time-kill images): target
L. crispatus
  polypeptides target L. crispatus (time-kill images): not L. crispatus
L. iners
  polypeptides target L. iners (time-kill images): target

## QHQKAKKPWT (Synthetic: M3)
G. vaginalis
  polypeptides target G. vaginalis (time-kill images): target
L. crispatus
  polypeptides target L. crispatus (time-kill images): not L. crispatus
L. iners
  polypeptides target L. iners (time-kill images): target

## PVPQKVRPQR (Synthetic: M7)
S. epidermidis
  sensitivity of S. epidermidis to peptide (CFU/ml): also sensitive
S. aureus MRSA [1]
  antibacterial activity against S. aureus MRSA in formulation: retains antibacterial activity
S. aureus MRSA [2]
  sensitivity of S. aureus to peptide (CFU/ml): also sensitive
  sensitivity of S. aureus MRSA to peptide as compared to Indolicidin: more sensitive
G. vaginalis
  polypeptides target G. vaginalis (time-kill images): target
P. aeruginosa [3]
  sensitivity of P. aeruginosa to peptide (CFU/ml): particularly sensitive
  sensitivity of P. aeruginosa to peptide as compared to Indolicidin: more sensitive
L. crispatus
  polypeptides target L. crispatus (time-kill images): not L. crispatus
L. iners
  polypeptides target L. iners (time-kill images): target
P. aeruginosa [4]
  effectiveness in reducing the viability of P. aeruginosa: more effective

## RGPPKSCRKRD [M14, RGPPKSCRKRD]
[5]
  ET50: >24 h

## Triton-X-100 [reference compound]
[5]
  ET50: 1.55 h

## HKYAVRVVKK [M16, HKYAVRVVKK]
S. epidermidis
  sensitivity of S. epidermidis to peptide (CFU/ml): also sensitive
S. aureus MRSA [1]
  antibacterial activity against S. aureus MRSA in formulation: retains antibacterial activity
A. baumannii [6]
  sensitivity of growth of A. baumannii, as compared to M22: more sensitive
[7]
  minimal bactericidal concentration (MBC): 15 µg/mL
A. baumannii [8]
  efficacy on A. baumannii, M16 at 4 hours compared to M14 at 24 hours: more efficacious
S. aureus MRSA [2]
  sensitivity of S. aureus to peptide (CFU/ml): also sensitive
  sensitivity of S. aureus MRSA to peptide as compared to Indolicidin: more sensitive
P. aeruginosa [3]
  sensitivity of P. aeruginosa to peptide (CFU/ml): particularly sensitive
  sensitivity of P. aeruginosa to peptide as compared to Indolicidin: more sensitive

## KTPKAVNKCR (Synthetic: M8)
G. vaginalis
  polypeptides target G. vaginalis (time-kill images): target
L. crispatus
  polypeptides target L. crispatus (time-kill images): not L. crispatus
L. iners
  polypeptides target L. iners (time-kill images): target
P. aeruginosa [4]
  effectiveness in reducing the viability of P. aeruginosa: more effective

## PKVERRPRPR (Synthetic: M1)
G. vaginalis
  polypeptides target G. vaginalis (time-kill images): target
L. crispatus
  polypeptides target L. crispatus (time-kill images): not L. crispatus
L. iners
  polypeptides target L. iners (time-kill images): target

## NTNRPRTKRA (Synthetic: M5)
G. vaginalis
  polypeptides target G. vaginalis (time-kill images): target
L. crispatus
  polypeptides target L. crispatus (time-kill images): not L. crispatus
L. iners
  polypeptides target L. iners (time-kill images): target

## RPRIPKASAK [M6, RPRIPKASAK]
[5]
  ET50: >24 h

## RQPRTHKYAVRVVKK (Synthetic: M15)
P. aeruginosa [4]
  effectiveness in reducing the viability of P. aeruginosa: more effective

## GKRKPVTRAR (Synthetic: M2)
G. vaginalis
  polypeptides target G. vaginalis (time-kill images): target
L. crispatus
  polypeptides target L. crispatus (time-kill images): not L. crispatus
L. iners
  polypeptides target L. iners (time-kill images): target
